Measured values reported in ChEMBL document CHEMBL5055633, “Amphipathic Barbiturates as Mimics of Antimicrobial Peptides and the Marine Natural Products Eusynstyelamides with Activity against Multi-resistant Clinical Isolates” (J Med Chem, 2021).

Columns and labels:
[1] = system: Enterococcus faecium; assay: Antimicrobial activity against extended spectrum-lactamase-carbapenemas producing Enterococcus faecium strain 50901530 assessed as reduction in bacterial growth incubated for 48 hrs by microdilution method; type: functional
[2] = system: Escherichia coli; assay: Antimicrobial activity against New Delhi metallo-beta lactamase-1 producing Escherichia coli 50739822 assessed as reduction in bacterial growth incubated for 48 hrs by microdilution method; type: functional
[3] = system: Acinetobacter baumannii; assay: Antimicrobial activity against oxacillinase-24 producing Acinetobacter baumannii K55-13 assessed as reduction in bacterial growth incubated for 48 hrs by microdilution method; type: functional
[4] = system: Pseudomonas aeruginosa; assay: Antimicrobial activity against verona integron-encoded metallo-beta-lactamase-2 producing Pseudomonas aeruginosa K34-7 assessed as reduction in bacterial growth incubated for 48 hrs by microdilution method; type: functional
[5] = system: Escherichia coli; assay: Antimicrobial activity against New Delhi metallo-beta lactamase-1 producing Escherichia coli 50676002 assessed as reduction in bacterial growth incubated for 48 hrs by microdilution method; type: functional
[6] = Antimicrobial activity against New Delhi metallo-beta lactamase-1 Klebsiella pneumoniae K66-45 assessed as reduction in bacterial growth incubated for 48 hrs by microdilution method; type: functional
[7] = system: Acinetobacter baumannii; assay: Antimicrobial activity against oxacillinase-23 producing Acinetobacter baumannii K63-58 assessed as reduction in bacterial growth incubated for 48 hrs by microdilution method; type: functional
[8] = system: Staphylococcus aureus; assay: Antimicrobial activity against Staphylococcus aureus ATCC 9144 assessed as reduction in bacterial growth incubated for 48 hrs by microdilution susceptibility test; type: functional
[9] = system: Escherichia coli; assay: Antimicrobial activity against oxacillinase-producing Escherichia coli 50579417 assessed as reduction in bacterial growth incubated for 48 hrs by microdilution method; type: functional
[10] = system: Enterococcus faecium; assay: Antimicrobial activity against extended spectrum-lactamase-carbapenemas producing Enterococcus faecium strain K36-18 assessed as reduction in bacterial growth incubated for 48 hrs by microdilution method; type: functional
[11] = system: Enterococcus faecium; assay: Antimicrobial activity against extended spectrum-lactamase-carbapenemas producing Enterococcus faecium strain TUH.50-22 assessed as reduction in bacterial growth incubated for 48 hrs by microdilution method; type: functional
[12] = system: Staphylococcus aureus; assay: Antimicrobial activity against extended spectrum-lactamase-carbapenemas producing Staphylococcus aureus strain IHT 99040 assessed as reduction in bacterial growth incubated for 48 hrs by microdilution method; type: functional
[13] = system: Escherichia coli; assay: Antimicrobial activity against Escherichia coli ATCC 25922 assessed as reduction in bacterial growth incubated for 48 hrs by microdilution susceptibility test; type: functional
[14] = system: HepG2; assay: Cytotoxicity against human HepG2 cells assessed as reduction in cell viability incubated for 24 hrs by colorimetric tetrazolium assay; type: functional, cell-based; conditions: HepG2, 24 h
[15] = system: Acinetobacter baumannii; assay: Antimicrobial activity against oxacillinase-23 producing Acinetobacter baumannii K47-42 assessed as reduction in bacterial growth incubated for 48 hrs by microdilution method; type: functional
[16] = system: Pseudomonas aeruginosa; assay: Antimicrobial activity against New Delhi metallo-beta lactamase-1 producing Pseudomonas aeruginosa 50692172 assessed as reduction in bacterial growth incubated for 48 hrs by microdilution method; type: functional
[17] = system: Staphylococcus aureus; assay: Antimicrobial activity against extended spectrum-lactamase-carbapenemas producing Staphylococcus aureus NCTC 10442 assessed as reduction in bacterial growth incubated for 48 hrs by microdilution method; type: functional
[18] = system: Acinetobacter baumannii; assay: Antimicrobial activity against oxacillinase-23 producing Acinetobacter baumannii K44-35 assessed as reduction in bacterial growth incubated for 48 hrs by microdilution method; type: functional
[19] = system: Escherichia coli; assay: Antimicrobial activity against verona integron-encoded metallo-beta-lactamase-29-producing Escherichia coli 50639799 assessed as reduction in bacterial growth incubated for 48 hrs by microdilution method; type: functional
[20] = system: Acinetobacter baumannii; assay: Antimicrobial activity against oxacillinase-58 producing Acinetobacter baumannii K12-21 assessed as reduction in bacterial growth incubated for 48 hrs by microdilution method; type: functional
[21] = system: Pseudomonas aeruginosa; assay: Antimicrobial activity against Pseudomonas aeruginosa PAO1 assessed as reduction in bacterial growth incubated for 48 hrs by microdilution susceptibility test; type: functional
[22] = Antimicrobial activity against verona integron-encoded metallo-beta-lactamase -1 producing Klebsiella pneumoniae 50667959 assessed as reduction in bacterial growth incubated for 48 hrs by microdilution method; type: functional
[23] = system: Enterococcus faecium; assay: Antimicrobial activity against extended spectrum-lactamase-carbapenemas producing Enterococcus faecium strain 50758899 assessed as reduction in bacterial growth incubated for 48 hrs by microdilution method; type: functional
[24] = system: Escherichia coli; assay: Antimicrobial activity against imipenem-type carbapenemase-26 producing Escherichia coli 50857972 assessed as reduction in bacterial growth incubated for 48 hrs by microdilution method; type: functional
[25] = system: Pseudomonas aeruginosa; assay: Antimicrobial activity against imipenem-type carbapenemase-14 producing Pseudomonas aeruginosa K44-24 assessed as reduction in bacterial growth incubated for 48 hrs by microdilution method; type: functional
[26] = system: MRC5; assay: Cytotoxicity against human MRC5 cells assessed as reduction in cell viability incubated for 24 hrs by colorimetric tetrazolium assay; type: functional, cell-based; conditions: MRC5, 24 h
[27] = system: Pseudomonas aeruginosa; assay: Antimicrobial activity against verona integron-encoded metallo-beta-lactamase-4 producing Pseudomonas aeruginosa K34-73 assessed as reduction in bacterial growth incubated for 48 hrs by microdilution method; type: functional
[28] = system: Pseudomonas aeruginosa; assay: Antimicrobial activity against verona integron-encoded metallo-beta-lactamase producing Pseudomonas aeruginosa 50692520 assessed as reduction in bacterial growth incubated for 48 hrs by microdilution method; type: functional
[29] = Hemolytic activity in human erythrocytes incubated for 1 hr by microplate reader; type: functional, cell-based; conditions: erythrocyte
[30] = system: Staphylococcus aureus; assay: Antimicrobial activity against extended spectrum-lactamase-carbapenemas producing Staphylococcus aureus strain 85/2082 assessed as reduction in bacterial growth incubated for 48 hrs by microdilution method; type: functional
[31] = Antimicrobial activity against oxacillinase-245 producing Klebsiella pneumoniae 50625602 assessed as reduction in bacterial growth incubated for 48 hrs by microdilution method; type: functional
[32] = system: Staphylococcus aureus; assay: Antimicrobial activity against extended spectrum-lactamase-carbapenemas producing Staphylococcus aureus N315 assessed as reduction in bacterial growth incubated for 48 hrs by microdilution method; type: functional
[33] = Antimicrobial activity against carbapenemase producing Klebsiella pneumoniae K47-25 assessed as reduction in bacterial growth incubated for 48 hrs by microdilution method; type: functional
[34] = Antimicrobial activity against New Delhi metallo-beta lactamase-1 and oxacillinase -181 producing Klebsiella pneumoniae 50531633 assessed as reduction in bacterial growth incubated for 48 hrs by microdilution method; type: functional
[35] = system: Staphylococcus aureus; assay: Antimicrobial activity against extended spectrum-lactamase-carbapenemas producing Staphylococcus aureus strain WIS assessed as reduction in bacterial growth incubated for 48 hrs by microdilution method; type: functional
[36] = system: Enterococcus faecium; assay: Antimicrobial activity against extended spectrum-lactamase-carbapenemas producing Enterococcus faecium strain 50673722 assessed as reduction in bacterial growth incubated for 48 hrs by microdilution method; type: functional
[37] = system: Corynebacterium glutamicum; assay: Antimicrobial activity against Corynebacterium glutamicum ATCC 13032 assessed as reduction in bacterial growth incubated for 48 hrs by microdilution susceptibility test; type: functional

N=C(N)NCCCCN1C(=O)N(CCCCNC(=N)N)C(=O)C(Cc2cc(C(F)(F)F)cc(C(F)(F)F)c2)(Cc2cc(C(F)(F)F)cc(C(F)(F)F)c2)C1=O.O=C(O)C(F)(F)F.O=C(O)C(F)(F)F
16 µg/mL: MIC [3] | MIC [4] | MIC [6] | MIC [7] | MIC [15] | MIC [16] | MIC [18] | MIC [20] | MIC [22] | MIC [25] | MIC [27] | MIC [28] | MIC [33] | MIC [34]
19 µg/mL: IC50 [14]
2 µg/mL: MIC [1] | MIC [8] | MIC [11] | MIC [12] | MIC [13] | MIC [17] | MIC [30] | MIC [32] | MIC [35] | MIC [36] | MIC [37]
4 µg/mL: MIC [5] | MIC [10] | MIC [19] | MIC [23] | MIC [24]
8 µg/mL: MIC [2] | MIC [9] | MIC [21] | MIC [31]
98 µg/mL: EC50 [29]
29 µg/mL: IC50 [26]

NCCCCN1C(=O)N(CCCCN)C(=O)C(Cc2ccc(F)c3ccccc23)(Cc2ccc(F)c3ccccc23)C1=O.O=C(O)C(F)(F)F.O=C(O)C(F)(F)F
4 µg/mL: MIC [1] | MIC [8] | MIC [11] | MIC [30]
160 µg/mL: EC50 [29]
8 µg/mL: MIC [10] | MIC [12] | MIC [17] | MIC [21] | MIC [23] | MIC [32] | MIC [35] | MIC [36]
1 µg/mL: MIC [37]
5 µg/mL: IC50 [14]
16 µg/mL: MIC [2] | MIC [5] | MIC [7] | MIC [9] | MIC [13] | MIC [16] | MIC [19] | MIC [24] | MIC [28] | MIC [34]
> 32 µg/mL: MIC [33]
32 µg/mL: MIC [3] | MIC [4] | MIC [6] | MIC [15] | MIC [18] | MIC [20] | MIC [22] | MIC [25] | MIC [27] | MIC [31]
2 µg/mL: IC50 [26]

NCCCCN1C(=O)N(CCCCN)C(=O)C(Cc2ccc(Br)c(Cl)c2)(Cc2ccc(Br)c(Cl)c2)C1=O.O=C(O)C(F)(F)F.O=C(O)C(F)(F)F
1 µg/mL: MIC [37]
16 µg/mL: MIC [2] | MIC [5] | MIC [9] | MIC [10] | MIC [13] | MIC [19] | MIC [23] | MIC [24] | MIC [34] | MIC [36]
10 µg/mL: IC50 [26]
172 µg/mL: EC50 [29]
6 µg/mL: IC50 [14]
8 µg/mL: MIC [1] | MIC [17] | MIC [32] | MIC [35]
4 µg/mL: MIC [8] | MIC [11] | MIC [12] | MIC [30]
32 µg/mL: MIC [3] | MIC [4] | MIC [6] | MIC [7] | MIC [15] | MIC [16] | MIC [18] | MIC [20] | MIC [21] | MIC [22] | MIC [25] | MIC [27] | MIC [28] | MIC [31] | MIC [33]
